Structures are written as SMILES.

In one series the target is CDK4/Cyclin D1 (Homo sapiens (Human), UniProt P11802). Kind of series: CDK4/CyclinD1 enzymatic activity assay (TR-FRET). The settings on record: ATP 2 mM, read-out: CDK4_D1 IC50. It counts as biochemical. A digest of the protocol: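 Insect-cell CDK4/Cyclin D1 (1 nM) with ULight-4E-BP1 (100 nM) and 2 mM ATP in HEPES pH 7.4 buffer, preincubated 20 min with compound (9-dose, 3-fold dilutions); 10 mM MgCl2 started the reaction, run 60 min at 37 °C. EDTA/Eu-anti-phospho-4E-BP1 TR-FRET detection; IC50 from 4-parameter Hill fit.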
Sequence of CDK4/Cyclin D1 (P11802 whole entry): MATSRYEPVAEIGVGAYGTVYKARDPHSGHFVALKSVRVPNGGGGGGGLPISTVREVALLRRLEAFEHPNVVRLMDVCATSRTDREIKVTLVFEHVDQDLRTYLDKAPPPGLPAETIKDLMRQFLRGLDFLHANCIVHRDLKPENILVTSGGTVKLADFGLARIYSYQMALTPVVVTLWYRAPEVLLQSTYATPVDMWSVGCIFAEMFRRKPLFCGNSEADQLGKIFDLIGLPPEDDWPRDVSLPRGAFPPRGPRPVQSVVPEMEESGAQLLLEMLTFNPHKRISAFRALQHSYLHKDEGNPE
Sequence of CDK4/Cyclin D1 (P24385 whole entry partner): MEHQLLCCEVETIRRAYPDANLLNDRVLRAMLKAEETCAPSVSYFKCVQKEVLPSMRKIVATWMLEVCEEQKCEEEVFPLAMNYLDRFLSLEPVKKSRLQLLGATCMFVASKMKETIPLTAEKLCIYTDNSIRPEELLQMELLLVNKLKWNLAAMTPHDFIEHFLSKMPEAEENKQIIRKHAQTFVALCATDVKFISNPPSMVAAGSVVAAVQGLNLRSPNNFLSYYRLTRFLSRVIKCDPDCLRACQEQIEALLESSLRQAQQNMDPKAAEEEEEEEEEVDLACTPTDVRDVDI

For another series, the target named is CDK6/Cyclin D1 (Homo sapiens (Human), UniProt Q00534). Kind of series: CDK6/CyclinD1 enzymatic activity assay (TR-FRET). The settings on record: ATP 250 μM, read-out: CDK6_D1 IC50. In kind it is biochemical. The protocol: CDK6/CyclinD1 Enzymatic Activity Assay
Sequence of CDK6/Cyclin D1 (Q00534 whole entry): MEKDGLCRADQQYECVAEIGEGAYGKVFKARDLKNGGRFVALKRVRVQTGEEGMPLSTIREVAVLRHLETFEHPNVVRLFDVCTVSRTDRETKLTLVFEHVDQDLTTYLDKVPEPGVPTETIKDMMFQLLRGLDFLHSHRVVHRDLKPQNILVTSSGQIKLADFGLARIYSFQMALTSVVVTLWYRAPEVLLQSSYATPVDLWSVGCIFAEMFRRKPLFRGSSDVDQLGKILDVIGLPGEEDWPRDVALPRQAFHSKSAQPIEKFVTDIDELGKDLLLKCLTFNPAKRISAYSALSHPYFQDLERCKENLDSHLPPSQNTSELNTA
Sequence of CDK6/Cyclin D1 (P24385 whole entry partner): as the sequence (P24385 whole entry partner) above
The inhibitory activity of compounds was evaluated in vitro using TR-FRET assay with white 384-well low volume microplate (Greiner Bio-One). CDK6/Cyclin D1 catalyzed phosphorylation of peptide in the presence and absence of compounds was measured and used in IC50 determination. Recombinant protein complex CDK6/Cyclin D1, expressed from insect cell, was purchased from ProQinase. Testing compounds were dissolved in DMSO at 0.1 mM and tested in 9-dose IC50 mode. The reaction mixture was prepared by mixing CDK6/Cyclin D1 (1 nM final), ULight-4E-BP1 (100 nM final, Perkinelmer, TRF0128-D), and ATP (250 μM final) in assay buffer (20 mM of HEPES pH 7.4, 1 mM of EGTA, 0.05% BSA, 0.005% Tween 20, and 1 mM TCEP). The compound of interest in DMSO was added to each well in 3-fold serial dilution by dispenser (TECAN D300E). After 20 minutes preincubation at room temperature, 0.1 μL MgCl2 (10 mM final) was added to initiate the reaction. Following a 60 minutes incubation at 37° C., the reaction was stopped by addition of 2 μL of quenching buffer consisting of Lance detection buffer (Perkinelmer CR97-100C), 2 nM LANCE Ultra Europium-anti-P-4E-BP1 (Perkinelmer, TRF0216-D), 10 mM EDTA, and incubate at room temperature for additional 60 minutes in dark. The reaction signal was measured by Envision multimode plate reader (PerkinElmer, 2102-0010). IC50 values were determined by fitting the data to the standard 4 parameters with Hill Slope using GraphPad Prism software.

Series [1] relates to MCF7 adenocarcinoma cell line. Kind of series: Cell proliferation studies in MCF7 cells (ATP-Lite, 10 days). In kind it is cell-based. The settings on record: Homo sapiens, 240 h, read-out: PROLIFERATION_CTG_MCF7 IC50. A digest of the protocol: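 Cells were seeded at 100 or 200 per well in DMEM with 10% FBS and dosed in quadruplicate over a 9-point 3-fold dilution. Incubation lasted 10 days at 37 °C, with media exchange and re-dosing on day 5. Viability was read by ATP-Lite luminescence and normalised to background and DMSO, giving IC50.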

A short description of series [2]: Brain-to-plasma ratio (Kp) determination in Sprague-Dawley rats. The note with it: male, rat, brain (homogenate) versus plasma, po, 10 mg/kg.
Description: The brain-to-plasma ratio (Kp) was determined in male Sprague-Dawley rats (7-9 weeks old) four hours after a single oral dose. Rats were acclimated and given free access to standard rodent chow and water throughout the entire study. Test articles were formulated as a solution at 0.3, 0.4, 0.5, or 1.0 mg/mL in a vehicle comprised of 10:15:75 (v:v:v) dimethylacetamide (DMA):Solutol HS15:water and delivered orally at a rate of 10 mL/kg to three rats to achieve final doses of 3, 4, 5, or 10 mg/kg, respectively. At 4 hours post-dose, blood samples were collected via jugular vein cannula into tubes containing K2EDTA as the anticoagulant and stored on ice. Blood samples were then centrifuged at 4° C. at 6000 rpm for 5 minutes, and the resulting plasma was placed into tubes and stored frozen at −80° C. until analysis. Whole brain samples were also collected at 4 hours post-dose. The weight of each brain was measured and recorded, and samples were immediately stored on dry ice. Brain samples were then transferred to storage at −80° C. until analysis.
Prior to analysis, brain samples were combined with water (4 mL/1 gram of brain) and homogenized. Prior to injection, plasma and brain homogenate samples and standards were prepared for analysis by precipitation with acetonitrile or 1:1 (v:v) methanol:acetonitrile. Samples were then thoroughly mixed, centrifuged at 4000 rpm for 15 minutes, and the resulting supernatant was transferred for analysis. Test article concentrations in plasma and brain homogenate were then determined by LC-MS/MS and quantified against calibration standards prepared to known concentrations in matched blank (analyte-free) biological matrix. The Kp was then determined by dividing the dilution-corrected brain concentration by the plasma concentration from each rat. A brain density of 1 gram/mL was assumed for all calculations.

With `Cc1c(-c2nc(Nc3ccc(C4CCCN(C)C4)cn3)ncc2F)sc2c(C(C)C)cn(C)c(=O)c12` (centres unmarked) [Example 88, 2-(5-Fluoro-2-((5-(1-methylpiperidin-3-yl)pyridin-2-yl)amino)pyrimidin-4-yl)-7-isopropyl-3,5-dimethylthieno[3,2-c]pyridin-4(5H)-one], the values for the IC50 (on CDK4/Cyclin D1; on CDK6/Cyclin D1; in series [1]) were at most 0.02 µM, 0.02 to 0.2 µM and 0.02 to 0.2 µM, respectively. The Kp at 4 h in series [2] lay in the range of 1 to 3.

Take `Cc1c(-c2nc(Nc3ccc(N4CC5(CCN(C)CC5)C4)cn3)ncc2F)sc2c(C(C)C)cn(C)c(=O)c12` [Example 77, 2-(5-Fluoro-2-((5-(7-methyl-2,7-diazaspiro[3.5]nonan-2-yl)pyridin-2-yl)amino)pyrimidin-4-yl)-7-isopropyl-3,5-dimethylthieno[3,2-c]pyridin-4(5H)-one]: the figures for the IC50 (on CDK4/Cyclin D1; on CDK6/Cyclin D1; in series [1]) were at most 0.02 µM, at most 0.02 µM and 0.02 to 0.2 µM, respectively. In addition, the Kp at 4 h in series [2] lay in the range of 1 to 3.

As to `Cc1c(-c2nc(Nc3ccc(C4CCCN(C)C4)cn3)ncc2Cl)sc2c1ncn2C(C)C` (centres unmarked) [Example 130, 5-Chloro-4-(3-isopropyl-6-methyl-3H-thieno[2,3-d]imidazol-5-yl)-N-(5-(1-methylpiperidin-3-yl)pyridin-2-yl)pyrimidin-2-amine], the results for the IC50 (at CDK4/Cyclin D1; at CDK6/Cyclin D1; in series [1]) were at most 0.02 µM, 0.02 to 0.2 µM and 0.02 to 0.2 µM, respectively. In series [2], the Kp at 4 h was in the range of 1 to 3.

Turning to `Cc1c(-c2nc(Nc3ccc(C4CCN(C)CC4)cn3)ncc2F)sc2c(C(C)C)cncc12` [Example 123, 5-Fluoro-N-[5-(1-methylpiperidin-4-yl)pyridin-2-yl]-4-(3-methyl-7-propan-2-ylthieno[3,2-c]pyridin-2-yl)pyrimidin-2-amine], the IC50 on CDK4/Cyclin D1 is at most 0.02 µM; at CDK6/Cyclin D1, 0.02 to 0.2 µM; in series [1], 0.02 to 0.2 µM. Besides, the Kp at 4 h in series [2] was over 3.

Consider `Cc1c(-c2nc(Nc3ccc(C4CCN(C(C)C)C4)cn3)ncc2F)sc2c(C(C)C)cn(C)c(=O)c12` (centres unmarked) [Example 95, 2-(5-Fluoro-2-((5-(1-isopropylpyrrolidin-3-yl)pyridin-2-yl)amino)pyrimidin-4-yl)-7-isopropyl-3,5-dimethylthieno[3,2-c]pyridin-4(5H)-one], for which the IC50 at CDK4/Cyclin D1 was at most 0.02 µM; at CDK6/Cyclin D1, 0.02 to 0.2 µM; in series [1] it was 0.02 to 0.2 µM. Moreover, in series [2], the Kp at 4 h fell in the range of 1 to 3.

On to `CCN1CCN(C(=O)c2ccc(Nc3ncc(F)c(-c4cc5nc(C)n(C(C)C)c5s4)n3)nc2)CC1` [Example 54, (4-Ethylpiperazin-1-yl)-[6-[[5-fluoro-4-(2-methyl-3-propan-2-ylthieno[2,3-d]imidazol-5-yl)pyrimidin-2-yl]amino]pyridin-3-yl]methanone], for which the IC50 is at most 0.02 µM on CDK4/Cyclin D1, 0.02 to 0.2 µM at CDK6/Cyclin D1 and 0.02 to 0.2 µM in series [1]. In addition, the Kp at 4 h in series [2] was under 1.

Consider `CCN1CCN(c2ccc(Nc3ncc(F)c(-c4sc5c(nc(C)n5C5CCC5)c4C)n3)nc2)CC1` [Example 4, 4-(3-Cyclobutyl-2,6-dimethylthieno[2,3-d]imidazol-5-yl)-N-[5-(4-ethylpiperazin-1-yl)pyridin-2-yl]-5-fluoro-pyrimidin-2-amine], for which the values for the IC50 (on CDK4/Cyclin D1; at CDK6/Cyclin D1; in series [1]) were at most 0.02 µM, at most 0.02 µM and 0.02 to 0.2 µM, respectively. Besides, the Kp at 4 h in series [2] lay in the range of 1 to 3.

With `Cc1c(-c2nc(Nc3ccc(N4C[C@@H]5CN(C)C[C@H]5C4)cn3)ncc2F)sc2c(C(C)C)cn(C)c(=O)c12` [Example 79, 2-(5-Fluoro-2-((5-((3aS,6aS)-5-methylhexahydropyrrolo[3,4-c]pyrrol-2(1H)-yl)pyridin-2-yl)amino)pyrimidin-4-yl)-7-isopropyl-3,5-dimethylthieno[3,2-c]pyridin-4(5H)-one], the values for the IC50 (at CDK4/Cyclin D1; on CDK6/Cyclin D1; in series [1]) were at most 0.02 µM, at most 0.02 µM and 0.02 to 0.2 µM, respectively. The Kp at 4 h in series [2] is under 1.
